Converted amounts (≈) assume the structure as drawn. “Also recorded” adds a separate entry of the source.
Assays:
S. cerevisiae = assay: Broth microdilution MIC assay; format: cell-based; details: Saccharomyces cerevisiae, 24 hours, 30° C., no visible growth
Description: Exemplary methods for antifungal activity assays are as follows:
S. cerevisiae was maintained with yeast peptone dextrose (YPD) growth media consisting of 10 g/L yeast extract, 20 g/L peptone, 20 g/L dextrose, and 20 g/L agar for solid media. The media was sterilized by autoclaving at 250° F. for 30 min. Dextrose was subsequently added as a sterile 40% w/v solution in water (dextrose solutions were filter sterilized). Solid media was prepared by pouring sterile media containing agar (20 g/L) onto Corning (Corning, N.Y.) 100×20 mm polystyrene plates. Liquid cultures were incubated at 30° C. on a rotary shaker and solid cultures were maintained at 30° C. in an incubator.
The protocol for the broth microdilution assay was adapted from the Clinical and Laboratory Standards Institute document M27-A2. Clinical and Laboratory Standards Institute. Reference Method for Broth Dilution Antifungal Susceptibility Testing, M27-A2, Approved Standard 2nd Ed. Vol. 22, Number 15, 2002. 50 mL of YPD media was inoculated and incubated overnight at either 30° C. (S. cerevisiae) or 37° C. (C. albicans) in a shaker incubator. The cell suspension was then diluted with YPD to an OD600 of 0.10 (˜5×10^5 cfu/mL) as measured by a Shimadzu (Kyoto, Japan) PharmaSpec UV-1700 UV/Vis spectrophotometer. […]

healthy mice = assay: Acute toxicity, single intravenous administration, lethality; format: in vivo, mouse
Description: FIG. 8 is a graph depicting lethality in healthy mice resulting from single intravenous administrations in the doses indicated of AmB or C2′epiAmB.
In a separate experiment, acute toxicity was determined by single intravenous administration of AmB or C2′epiAmB to healthy mice, followed by monitoring for lethality.

[1] = tested on: primary human renal proximal tubule epithelial cells; assay: WST-8 cell proliferation assay (MTC); format: cell-based; details: up to limits of solubility
Description: WST-8 Cell Proliferation Assays
Primary human renal proximal tubule epithelial cells (RPTECs) were purchased from ATCC (Manassas, Va.) and immediately cultured upon receipt. Complete growth media was prepared using renal epithelial cell basal medium (ATCC, PCS-400-030), renal epithelial cell growth kit (ATCC, PCS-400-040), and penicillin-streptomycin (10 units/mL and 10 μg/mL). Complete media was stored at 4° C. in the dark and used within 28 days. Primary RPTECs were grown in CO2 incubator at 37° C. with an atmosphere of 95% air/5% CO2.
WST-8 cell proliferation assay kit (Ser. No. 10/010,199) was purchased from Cayman Chemical Company (Ann Arbor, Mich.) and stored at −20° C. and used within 6 months of receipt. WST-8 reagent and electron mediator solution were thawed and mixed to prepare the WST-8 reagent solution. The solution was stored at −20° C. and used within one week.
A suspension of primary RPTECs in complete growth media was brought to a concentration of 1×10^5 cells/mL. A 96-well plate was seeded with 99 μL of the cell suspension and incubated at 37° C. with an atmosphere of 95% air/5% CO2 for 3 hours. Positive and negative controls were prepared by seeding with 100 μL of the cell suspension or 100 μL of the complete media. Compounds were prepared as 5 mM (AmB), 20 mM (C2′deOAmB), and 50 mM (C2′epiAmB) stock solutions in DMSO and serially diluted to the following concentrations with DMSO: 50000, 40000, 30000, 20000, 10000, 8000, 6000, 4000, 3000, 2000, 1500, 1000, 800, 600, 400, 300, 200, 100, 50, 25, 10, 5, 2.5, 1, 0.5, 0.25, and 0.1 μM. 1 μL aliquots of each solution were added to the 96-well plate in triplicate, with each column representing a different concentration of the test compound. The 96-well plate was incubated at 37° C. with an atmosphere of 95% air/5% CO2 for 24 hours. […] Following incubation, the 96-well plate was mixed in a shaking incubator at 200 rpm for 1 minute and absorbances were read at 450 nm using a Biotek H1 Synergy Hybrid Reader (Wanooski, Vt.). […]

C[C@@H]1[C@H](O)[C@@H](C)/C=C/C=C/C=C/C=C/C=C/C=C/C=C/[C@H](O[C@@H]2O[C@H](C)[C@@H](O)[C@H](N)[C@H]2O)CC2O[C@](O)(C[C@@H](O)C[C@@H](O)[C@H](O)CC[C@@H](O)C[C@@H](O)CC(=O)O[C@H]1C)C[C@H](O)[C@H]2C(=O)O [C2′epiAmB]
MIC (S. cerevisiae): 2 µM (≈ 1.85 µg/mL)
Lethality (healthy mice; healthy mice, single intravenous doses up to 16 mg/kg): no deaths observed
Acute toxicity compared to AmB (in words) (healthy mice; mice): significantly less toxic; also recorded: substantially less toxic to mice
Toxicity to primary human renal proximal tubule epithelial cells (in words) [1]: no evidence of toxicity up to their limits of solubility

From patent US9738677B2, “Amphotericin B derivative with reduced toxicity” (priority 2014, dated 2017)
